From PubChem BioAssay AID330 (DTP/NCI, 2004)
Values joined by “and” are separate entries in the source; they are usually repeats but may differ in a detail not shown here. Equal values may be shown once. Inconclusive results and toxic doses are left out. Rule for the calls: active = survival T/C of 150% or more; inactive = T/C below 125% in these data.

System: P388 leukemia ip, CD2F1 mice, survival T/C
Assay: NCI In Vivo Anticancer Drug Screen. Data for tumor model P388 Leukemia (intraperitoneal) in CD2F1 (CDF1) mice
Conditions: endpoint: median survival time, higher = longer survival
In short: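 Mice carrying the transplanted tumor received test compound or vehicle. Survival was recorded in each group, and the value is the treated-group measurement divided by that of the vehicle-treated control group.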

[1] = dose: 50.0 mg/kg/injection, schedule: Q01DX009 (ip), vehicle: saline
[2] = dose: 100.0 mg/kg/injection, schedule: Q01DX001 (ip), vehicle: saline with Tween-80
[3] = dose: 200.0 mg/kg/injection, schedule: Q01DX001 (ip), vehicle: saline with Tween-80
[4] = dose: 400.0 mg/kg/injection, schedule: Q01DX001 (ip), vehicle: saline with Tween-80
[5] = dose: 50.0 mg/kg/injection, schedule: Q01DX009 (ip), vehicle: saline with Tween-80
[6] = dose: 100.0 mg/kg/injection, schedule: Q01DX009 (ip), vehicle: saline with Tween-80
[7] = dose: 200.0 mg/kg/injection, schedule: Q01DX009 (ip), vehicle: saline with Tween-80
[8] = dose: 6.25 mg/kg/injection, schedule: Q01DX005 (ip), vehicle: saline with Tween-80
[9] = dose: 12.5 mg/kg/injection, schedule: Q01DX005 (ip), vehicle: saline with Tween-80
[10] = dose: 50.0 mg/kg/injection, schedule: Q01DX009 (ip), vehicle: Klucel (hydroxypropylcellulose) (HPC)
[11] = dose: 100.0 mg/kg/injection, schedule: Q01DX009 (ip), vehicle: Klucel (hydroxypropylcellulose) (HPC)
[12] = dose: 50.0 mg/kg/injection, schedule: Q01DX001 (ip), vehicle: Klucel (hydroxypropylcellulose) (HPC)
[13] = dose: 60.0 mg/kg/injection, schedule: Q01DX005 (ip), vehicle: saline with Tween-80
[14] = dose: 120.0 mg/kg/injection, schedule: Q01DX005 (ip), vehicle: saline with Tween-80
[15] = dose: 50.0 mg/kg/injection, schedule: Q01DX005 (ip), vehicle: Klucel (hydroxypropylcellulose) (HPC)
[16] = dose: 100.0 mg/kg/injection, schedule: Q01DX005 (ip), vehicle: Klucel (hydroxypropylcellulose) (HPC)
[17] = dose: 200.0 mg/kg/injection, schedule: Q01DX005 (ip), vehicle: Klucel (hydroxypropylcellulose) (HPC)
[18] = dose: 50.0 mg/kg/injection, schedule: Q01DX005 (ip), vehicle: saline with Tween-80
[19] = dose: 100.0 mg/kg/injection, schedule: Q01DX005 (ip), vehicle: saline with Tween-80
[20] = dose: 200.0 mg/kg/injection, schedule: Q01DX005 (ip), vehicle: saline with Tween-80

Measured: T/C

CC(=O)N/C(=C/c1ccccc1)C(=O)N1CCCC1C(=O)O (stereo not drawn)
inactive: dose: 12.5 mg/kg/injection, schedule: Q01DX009 (ip), vehicle: saline 105 % of control | dose: 25.0 mg/kg/injection, schedule: Q01DX009 (ip), vehicle: saline 104 % of control | [1] 96 % of control

CON(Cc1ccc(C(=O)NC(C)C)cc1)Cc1ccc(C(=O)NC(C)C)cc1
inactive: dose: 25.0 mg/kg/injection, schedule: Q01DX009 (ip), vehicle: other 94 % of control | dose: 50.0 mg/kg/injection, schedule: Q01DX009 (ip), vehicle: other 100 % of control | dose: 100.0 mg/kg/injection, schedule: Q01DX009 (ip), vehicle: other 92 % of control

O=S1(=O)CC(SC2CS(=O)(=O)C2)C1
inactive: [2] 103 % of control | [3] 101 % of control | [4] 100 % of control

O=C(OC1OC(COCc2ccccc2)C(OCc2ccccc2)C(OCc2ccccc2)C1OCc1ccccc1)c1ccc([N+](=O)[O-])cc1 (stereo not drawn)
inactive: [2] 92 % of control | [3] 90 % of control

C=CS(=O)(=O)c1ccc(Nc2cc(S(=O)(=O)O)c(N)c3c2C(=O)c2ccccc2C3=O)cc1
inactive: dose: 25.0 mg/kg/injection, schedule: Q01DX009 (ip), vehicle: saline with Tween-80 116 % of control and 120 % of control | [5] 104 % of control and 115 % of control and 123 % of control | [6] 107 % of control and 120 % of control and 123 % of control | [7] 105 % of control and 118 % of control

CCCCCCCCCCCCOCCCOP(=O)([O-])OCC[N+](C)(C)C
inactive: dose: 6.25 mg/kg/injection, schedule: Q01DX005 (ip), vehicle: saline 105 % of control | dose: 12.5 mg/kg/injection, schedule: Q01DX005 (ip), vehicle: saline 100 % of control | dose: 25.0 mg/kg/injection, schedule: Q01DX005 (ip), vehicle: saline 91 % of control | dose: 50.0 mg/kg/injection, schedule: Q01DX005 (ip), vehicle: saline 91 % of control | dose: 100.0 mg/kg/injection, schedule: Q01DX005 (ip), vehicle: saline 107 % of control

CN1CCC(C#N)(c2ccccn2)CC1
inactive: dose: 2.5 mg/kg/injection, schedule: Q01DX009 (ip), vehicle: saline 100 % of control | dose: 5.0 mg/kg/injection, schedule: Q01DX009 (ip), vehicle: saline 109 % of control | dose: 10.0 mg/kg/injection, schedule: Q01DX009 (ip), vehicle: saline 100 % of control

COC(=O)c1ccc(CSc2ccccc2NC(=S)Nc2cccc(C(F)(F)F)c2)o1
inactive: [8] 104 % of control | [9] 100 % of control | dose: 25.0 mg/kg/injection, schedule: Q01DX005 (ip), vehicle: saline with Tween-80 98 % of control

COc1ccc(N=Nc2c(-c3ccccc3)nn(C(=S)SC)c2-c2ccccc2)cc1
inactive: [2] 92 % of control | [3] 95 % of control | [4] 108 % of control

Cc1ncc(CO)n1Cc1ccc(Cl)cc1
inactive: [10] 104 % of control | [11] 99 % of control | dose: 200.0 mg/kg/injection, schedule: Q01DX009 (ip), vehicle: Klucel (hydroxypropylcellulose) (HPC) 94 % of control

CC(COS(C)(=O)=O)OS(C)(=O)=O (stereo not drawn)
inactive: [12] 98 % of control | dose: 100.0 mg/kg/injection, schedule: Q01DX001 (ip), vehicle: Klucel (hydroxypropylcellulose) (HPC) 93 % of control | dose: 200.0 mg/kg/injection, schedule: Q01DX001 (ip), vehicle: Klucel (hydroxypropylcellulose) (HPC) 101 % of control

C#CCSc1n[nH]c(-c2ccco2)n1
inactive: [13] 101 % of control | [14] 105 % of control | dose: 240.0 mg/kg/injection, schedule: Q01DX005 (ip), vehicle: saline with Tween-80 105 % of control

O=C(Nc1ccc(Nc2ccc3c(c2)C(=O)c2ccccc2C3=O)c2c1C(=O)c1ccccc1C2=O)c1ccccc1
inactive: [15] 92 % of control | [16] 91 % of control | [17] 88 % of control

CC(C)[N+](C)(C)CC(O)COc1cccc2ccccc12 (stereo not drawn)
inactive: [1] 104 % of control

CCOC(=O)c1csc(C2OC(COC(=O)c3ccccc3)C(OC(=O)c3ccccc3)C2OC(=O)c2ccccc2)n1 (stereo not drawn)
inactive: [5] 96 % of control | [6] 95 % of control | [7] 93 % of control

COc1cccc(/C(C#N)=N/NC(=O)c2nc[nH]c2C)c1
inactive: dose: 1.56 mg/kg/injection, schedule: Q01DX005 (ip), vehicle: saline with Tween-80 93 % of control | dose: 3.12 mg/kg/injection, schedule: Q01DX005 (ip), vehicle: saline with Tween-80 94 % of control | [8] 95 % of control | [9] 93 % of control | [18] 86 % of control | [19] 87 % of control | [20] 100 % of control

CCCC1OCC(O)C(C(O)C(=O)CN(Cc2ccccc2)Cc2ccccc2)O1 (stereo not drawn)
inactive: [18] 100 % of control | [19] 98 % of control | [20] 98 % of control

O=C(c1ccc(Cl)cc1)n1c(Cl)c(/C=N\Nc2ccc([N+](=O)[O-])cc2[N+](=O)[O-])c2ccccc21
inactive: dose: 12.5 mg/kg/injection, schedule: Q01DX001 (ip), vehicle: Klucel (hydroxypropylcellulose) (HPC) 92 % of control | dose: 25.0 mg/kg/injection, schedule: Q01DX001 (ip), vehicle: Klucel (hydroxypropylcellulose) (HPC) 96 % of control | [12] 88 % of control

O=C1Cc2ccccc2NC(c2ccccc2)C1S(=O)(=O)c1ccccc1 (stereo not drawn)
inactive: [15] 102 % of control | [16] 102 % of control | [17] 101 % of control

O=C1C(=C(O)c2ccccc2)C(=O)c2ccccc21
inactive: dose: 15.0 mg/kg/injection, schedule: Q01DX005 (ip), vehicle: saline with Tween-80 99 % of control | dose: 30.0 mg/kg/injection, schedule: Q01DX005 (ip), vehicle: saline with Tween-80 105 % of control | [13] 105 % of control and 109 % of control | [14] 104 % of control

CC1CCCCC1O (stereo not drawn)
inactive: dose: 50.0 mg/kg/injection, schedule: Q04DX003 (ip), vehicle: saline with Tween-80 110 % of control | dose: 100.0 mg/kg/injection, schedule: Q04DX003 (ip), vehicle: saline with Tween-80 115 % of control | dose: 200.0 mg/kg/injection, schedule: Q04DX003 (ip), vehicle: saline with Tween-80 115 % of control

CCC[CH2][Sn]([CH2]CCC)([n]1ccnc1)[n]1ccnc1
inactive: dose: 3.12 mg/kg/injection, schedule: Q01DX005 (ip), vehicle: Klucel (hydroxypropylcellulose) (HPC) 116 % of control | dose: 6.25 mg/kg/injection, schedule: Q01DX005 (ip), vehicle: Klucel (hydroxypropylcellulose) (HPC) 110 % of control

Cc1ccc(N2[C@H]3CCCN3c3ccc(C)cc3[C@@H]2C(F)(F)F)cc1
inactive: [18] 110 % of control | [19] 100 % of control | [20] 100 % of control

CCOc1cc2c(cc1C(CC)c1ccc(O)cc1)OCO2 (stereo not drawn)
inactive: dose: 50.0 mg/kg/injection, schedule: Q01DX005 (ip), vehicle: distilled water + Tween-80 93 % of control | dose: 100.0 mg/kg/injection, schedule: Q01DX005 (ip), vehicle: distilled water + Tween-80 93 % of control | dose: 200.0 mg/kg/injection, schedule: Q01DX005 (ip), vehicle: distilled water + Tween-80 96 % of control

Cc1cnc(C=O)c2cccc([N+](=O)[O-])c12
inactive: [10] 105 % of control | [11] 112 % of control
